Measurements as given in the CheMixHub viscosity set.
± gives the uncertainty stated by the source.

Assay: xn = mol fraction of the nth substance listed

C[NH+](CCO)CCO.O=C[O-] + CO
viscosity [mPa·s], 101 kPa
Conditions	293.15 K	303.15 K	313.15 K	323.15 K
x1 = 0.0524	26.47 ± 0.54	15.39 ± 0.32	6.822 ± 0.14	4.667 ± 0.097
x1 = 0.1066	52.08 ± 1.1	24.58 ± 0.51	13.12 ± 0.27	8.99 ± 0.18
x1 = 0.2075	103.1 ± 2.3	49.04 ± 1	26.16 ± 0.53	17.87 ± 0.36
x1 = 0.3137	158.6 ± 3.9	77.7 ± 1.6	40.82 ± 0.84	27.89 ± 0.57
x1 = 0.4061	207.6 ± 5.6	102 ± 2.3	54.12 ± 1.1	37.05 ± 0.76
x1 = 0.5016	259.6 ± 7.5	126.3 ± 3	68.64 ± 1.4	47.08 ± 0.96
x1 = 0.6339	339 ± 11	163 ± 4.1	91.65 ± 2	62.82 ± 1.3
x1 = 0.7031	388.3 ± 13	187.2 ± 4.9	106.1 ± 2.4	72.5 ± 1.5
x1 = 0.8195	494.6 ± 17	243.3 ± 6.9	136.4 ± 3.3	92.04 ± 2
x1 = 0.9184	618.8 ± 23	307.1 ± 9.4	167.4 ± 4.3	111.1 ± 2.5
x1 = 0.962	667.2 ± 25	330.3 ± 10	179.6 ± 4.7	118.9 ± 2.8

CCCBr + ClC(Cl)(Cl)Cl
viscosity [mPa·s], 101 kPa
Conditions	293.15 K	303.15 K	313.15 K	323.15 K
x1 = 0.143	0.855 ± 0.018	0.76 ± 0.016	0.678 ± 0.015	0.61 ± 0.013
x1 = 0.294	0.775 ± 0.017	0.691 ± 0.015	0.621 ± 0.013	0.562 ± 0.012
x1 = 0.445	0.7 ± 0.015	0.625 ± 0.014	0.565 ± 0.012	0.512 ± 0.011
x1 = 0.625	0.637 ± 0.014	0.581 ± 0.013	0.52 ± 0.011	0.472 ± 0.01

Nc1ccccc1 + c1ccccc1
Conditions	viscosity [mPa·s]
298.15 K, 101 kPa, x1 = 0.1039	0.71 ± 0.037
298.15 K, 101 kPa, x1 = 0.2282	0.83 ± 0.042
298.15 K, 101 kPa, x1 = 0.3729	1.1 ± 0.054
298.15 K, 101 kPa, x1 = 0.4341	1.211 ± 0.059
298.15 K, 101 kPa, x1 = 0.5562	1.483 ± 0.071
298.15 K, 101 kPa, x1 = 0.6562	1.803 ± 0.084
298.15 K, 101 kPa, x1 = 0.7656	2.217 ± 0.1
298.15 K, 101 kPa, x1 = 0.8661	2.767 ± 0.13
298.15 K, 101 kPa, x1 = 0.9088	3.029 ± 0.14
298.15 K, 101 kPa, x2 = 0.01	3.64 ± 0.05
298.15 K, 101 kPa, x2 = 0.026	3.555 ± 0.048
298.15 K, 101 kPa, x2 = 0.12	2.895 ± 0.039
298.15 K, 101 kPa, x2 = 0.205	2.461 ± 0.033
298.15 K, 101 kPa, x2 = 0.304	2.022 ± 0.027
298.15 K, 101 kPa, x2 = 0.39	1.67 ± 0.02
298.15 K, 101 kPa, x2 = 0.468	1.448 ± 0.019
298.15 K, 101 kPa, x2 = 0.52	1.307 ± 0.017
298.15 K, 101 kPa, x2 = 0.626	1.1 ± 0.014
298.15 K, 101 kPa, x2 = 0.662	1.056 ± 0.014
298.15 K, 101 kPa, x2 = 0.794	0.861 ± 0.011
298.15 K, 101 kPa, x2 = 0.896	0.714 ± 0.009
298.15 K, 101.33 kPa, x1 = 0.2	0.78 ± 0.016
298.15 K, 101.33 kPa, x1 = 0.5	1.277 ± 0.026
298.15 K, 101.33 kPa, x2 = 0.25	2.458 ± 0.037
298.15 K, 101.33 kPa, x2 = 0.4	1.764 ± 0.026
298.15 K, 101.33 kPa, x2 = 0.5	1.427 ± 0.021
303.15 K, 101 kPa, x1 = 0.1039	0.657 ± 0.035
303.15 K, 101 kPa, x1 = 0.2282	0.781 ± 0.04
303.15 K, 101 kPa, x1 = 0.3729	0.965 ± 0.048
303.15 K, 101 kPa, x1 = 0.4341	1.093 ± 0.054
303.15 K, 101 kPa, x1 = 0.5562	1.371 ± 0.066
303.15 K, 101 kPa, x1 = 0.6562	1.648 ± 0.078
303.15 K, 101 kPa, x1 = 0.7656	1.991 ± 0.093
303.15 K, 101 kPa, x1 = 0.8661	2.495 ± 0.11
303.15 K, 101 kPa, x1 = 0.9088	2.745 ± 0.12
308.15 K, 101 kPa, x1 = 0.1019	0.5981 ± 0.024
308.15 K, 101 kPa, x1 = 0.1039	0.589 ± 0.032
308.15 K, 101 kPa, x1 = 0.1492	0.6532 ± 0.027
308.15 K, 101 kPa, x1 = 0.2282	0.736 ± 0.038
308.15 K, 101 kPa, x1 = 0.2326	0.728 ± 0.03
308.15 K, 101 kPa, x1 = 0.267	0.7545 ± 0.031
308.15 K, 101 kPa, x1 = 0.3462	0.8563 ± 0.035
308.15 K, 101 kPa, x1 = 0.3729	0.91 ± 0.046
308.15 K, 101 kPa, x1 = 0.4341	1.012 ± 0.05
308.15 K, 101 kPa, x1 = 0.4911	1.115 ± 0.045
308.15 K, 101 kPa, x1 = 0.5562	1.224 ± 0.059
308.15 K, 101 kPa, x1 = 0.6312	1.492 ± 0.061
308.15 K, 101 kPa, x1 = 0.6562	1.476 ± 0.07
308.15 K, 101 kPa, x1 = 0.68	1.59 ± 0.065
308.15 K, 101 kPa, x1 = 0.7615	1.835 ± 0.075
308.15 K, 101 kPa, x1 = 0.7656	1.79 ± 0.084
308.15 K, 101 kPa, x1 = 0.8499	2.128 ± 0.087
308.15 K, 101 kPa, x1 = 0.8661	2.179 ± 0.1
308.15 K, 101 kPa, x1 = 0.9088	2.443 ± 0.11
313.15 K, 101 kPa, x1 = 0.1039	0.562 ± 0.031
313.15 K, 101 kPa, x1 = 0.2282	0.689 ± 0.036
313.15 K, 101 kPa, x1 = 0.3729	0.842 ± 0.043
313.15 K, 101 kPa, x1 = 0.4341	0.928 ± 0.047
313.15 K, 101 kPa, x1 = 0.5562	1.124 ± 0.055
313.15 K, 101 kPa, x1 = 0.6562	1.337 ± 0.064
313.15 K, 101 kPa, x1 = 0.7656	1.587 ± 0.075
313.15 K, 101 kPa, x1 = 0.8661	1.93 ± 0.09
313.15 K, 101 kPa, x1 = 0.9088	2.103 ± 0.098
323.15 K, 101.33 kPa, x1 = 0.2	0.541 ± 0.011
323.15 K, 101.33 kPa, x1 = 0.5	0.792 ± 0.016
